≈ marks a conversion by molar mass, not a printed value. Like-named read-outs stand apart in the source and are kept apart here.
Key:
[1] = tested on: Bacillus subtilis MTCC 441; assay: In vitro antibacterial activity (CLSI dilution MIC); type: cell-based; conditions: MTCC441
DNA gyrase from E. coli = target: T1, DNA gyrase from E. coli (Escherichia coli, UniProt P0AES4+P0AES6); assay: Inspiralis E. coli DNA gyrase inhibition assay; type: biochemical
T1 construct: purchased Inspiralis
Method: Inhibitory potencies were investigated utilizing the Inspiralis assay on streptavidin-coated 96-well microtiter plates. First, the plates were rehydrated with buffer (20 mM Tris-HCl with pH 7.6, 0.01% w/v BSA, 0.05% v/v Tween 20, 137 mM NaCl) and the biotinylated oligonucleotide was then immobilized. After washing off the unbound oligonucleotide, the enzyme test was performed. The reaction volume of 30 μL in buffer (35 mM Tris×HCl with pH 7.5, 4 mM MgCl2, 24 mM KCl, 2 mM DTT, 1.8 mM spermidine, 1 mM ATP, 6.5% w/v glycerol, 0.1 mg/mL albumin) contained 1.5 U of DNA gyrase from E. coli, 0.75 μg of relaxed pNO1 plasmid, and 3 μL solution of the inhibitor in 10% DMSO and 0.008% Tween 20. Reaction solutions were incubated at 37° C. for 30 min. After that, the TF buffer (50 mM NaOAc with pH 5.0, 50 mM NaCl and 50 mM MgCl2) was added to terminate the enzymatic reaction. After additional incubation for 30 min at rt, during which biotinoligonucleotide-plasmid triplex was formed, the unbound plasmid was washed off using TF buffer and SybrGOLD in T10 buffer (10 mM Tris HCl with pH 8.0 and 1 mM EDTA) was added. The fluorescence was measured with a microplate reader (BioTek Synergy H4, excitation: 485 nm, emission: 535 nm). Initial screening was done at 100 or 10 μM concentration of inhibitors. […] GraphPad Prism software was used to calculate the IC50 values. […]

[2] = tested on: Staphylococcus aureus ATCC 29213; assay: In vitro antibacterial activity (CLSI dilution MIC); type: cell-based; conditions: ATCC29213
[3] = tested on: Enterococcus faecium ATCC 51559 (VRE resistant); assay: as above; type: cell-based
[4] = tested on: Pseudomonas aeruginosa MTCC 741; assay: as above; type: cell-based; conditions: MTCC741
[5] = tested on: Enterococcus faecium ATCC 35667; assay: as above; type: cell-based; conditions: ATCC35667
[6] = tested on: Escherichia coli MTCC 443; assay: as above; type: cell-based; conditions: MTCC443
[7] = tested on: Staphylococcus aureus ATCC BAA-1556 (MERSA resistant); assay: as above; type: cell-based; conditions: ATCCBAA1556
[8] = tested on: Mycobacterium tuberculosis H37Rv strain; assay: Anti-tubercular alamar blue microplate MIC assay; type: cell-based; conditions: 168 h, 7 days, read-out: anti-mycobacterial activity (MIC)
[9] = tested on: Staphylococcus epidermidis; assay: In vitro antibacterial activity (CLSI dilution MIC); type: cell-based
[10] = tested on: Klebsiella pneumonia MTCC 618; assay: as above; type: cell-based; conditions: Klebsiella pneumoniae, MTCC618

T1 sequence (P0AES4 whole entry, one chain of several): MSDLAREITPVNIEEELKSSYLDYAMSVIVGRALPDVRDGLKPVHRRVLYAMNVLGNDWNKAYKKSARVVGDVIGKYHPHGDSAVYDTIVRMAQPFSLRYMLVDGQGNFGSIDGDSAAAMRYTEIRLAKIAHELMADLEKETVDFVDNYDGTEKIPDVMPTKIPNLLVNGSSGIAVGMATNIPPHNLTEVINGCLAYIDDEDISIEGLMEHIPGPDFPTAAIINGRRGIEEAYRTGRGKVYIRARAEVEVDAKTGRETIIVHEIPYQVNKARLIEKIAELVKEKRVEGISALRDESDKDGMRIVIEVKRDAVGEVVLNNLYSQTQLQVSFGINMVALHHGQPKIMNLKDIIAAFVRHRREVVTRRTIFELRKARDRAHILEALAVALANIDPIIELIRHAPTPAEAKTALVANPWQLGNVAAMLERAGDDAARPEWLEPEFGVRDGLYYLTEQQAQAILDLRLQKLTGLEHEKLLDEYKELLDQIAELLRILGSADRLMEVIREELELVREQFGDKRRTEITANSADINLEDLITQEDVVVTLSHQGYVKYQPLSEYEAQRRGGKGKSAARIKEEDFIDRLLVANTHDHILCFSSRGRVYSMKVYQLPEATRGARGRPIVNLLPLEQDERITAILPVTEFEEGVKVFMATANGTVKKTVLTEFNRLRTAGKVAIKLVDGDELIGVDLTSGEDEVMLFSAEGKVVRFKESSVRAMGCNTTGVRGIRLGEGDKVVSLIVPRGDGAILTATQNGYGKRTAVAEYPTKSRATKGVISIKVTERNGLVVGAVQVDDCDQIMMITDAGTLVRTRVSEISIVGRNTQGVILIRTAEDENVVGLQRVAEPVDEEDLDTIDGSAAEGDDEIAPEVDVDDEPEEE

Structure (SMILES): CC(=O)Nc1ccc2oc3c4ccc(CC(=O)O)cc4oc(=O)c3c2c1 [Compound 5, 2-(8-acetamido-6-oxo-6H-benzofuro[3,2-c]chromen-3-yl)acetic acid]
- MIC ([1]; Bacillus subtilis MTCC 441, read-out: MIC): 0.55 µg/mL (≈ 1.57 µM)
- IC50 (DNA gyrase from E. coli): 20 nM
- MIC [2]: 1 µg/mL (≈ 2.85 µM)
- MIC [3]: 0.5 µg/mL (≈ 1.42 µM)
- MIC ([4]; Pseudomonas aeruginosa MTCC 741, read-out: MIC): 0.25 µg/mL (≈ 0.712 µM)
- MIC [5]: 0.55 µg/mL (≈ 1.57 µM)
- MIC [6]: 0.75 µg/mL (≈ 2.13 µM)
- MIC [7]: 1 µg/mL (≈ 2.85 µM)
- MIC [8]: 1 µg/mL (≈ 2.85 µM)
- MIC [9]: 2 µg/mL (≈ 5.69 µM)
- MIC ([10]; Klebsiella pneumonia MTCC 618, read-out: MIC): 0.75 µg/mL (≈ 2.13 µM)

Structure (SMILES): CN[C@H](CC(C)C)C(=O)N[C@H]1C(=O)N[C@@H](CC(N)=O)C(=O)N[C@H]2C(=O)N[C@H]3C(=O)N[C@H](C(=O)N[C@H](C(=O)O)c4cc(O)cc(O)c4-c4cc3ccc4O)[C@H](O)c3ccc(c(Cl)c3)Oc3cc2cc(c3O[C@@H]2O[C@H](CO)[C@@H](O)[C@H](O)[C@H]2O[C@H]2C[C@](C)(N)[C@H](O)[C@H](C)O2)Oc2ccc(cc2Cl)[C@H]1O [Vancomycin, reference compound]
- MIC ([1]; Bacillus subtilis): 0.5 µg/mL (≈ 0.345 µM)
- MIC ([4]; Pseudomonas aeruginosa): > 128 µg/mL
- MIC [10]: > 128 µg/mL
